From PubChem BioAssay (NCI)
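Five concentrations, 48 hours, 96-well plates. At the TGI there is no net growth.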

What was measured:
Test in all cases: NCI tumour cell line growth inhibition, 48 h
CCRF-CEM leukemia = test system: CCRF-CEM leukemia
PC-3 prostate = test system: PC-3 prostate
SK-MEL-5 melanoma = test system: SK-MEL-5 melanoma
SF-268 CNS = test system: SF-268 CNS
A549 NSCLC = test system: A549 NSCLC
U251 CNS = test system: U251 CNS
MDA-N = test system: MDA-N
HCC-2998 colon = test system: HCC-2998 colon
RPMI-8226 leukemia = test system: RPMI-8226 leukemia
OVCAR-3 ovarian = test system: OVCAR-3 ovarian
MDA-MB-435 = test system: MDA-MB-435
COLO 205 colon = test system: COLO 205 colon
K-562 leukemia = test system: K-562 leukemia
NCI-H460 lung = test system: NCI-H460 lung
NCI-H226 lung = test system: NCI-H226 lung
UACC-257 melanoma = test system: UACC-257 melanoma
RXF 393 renal = test system: RXF 393 renal
HOP-92 NSCLC = test system: HOP-92 NSCLC
SF-295 CNS = test system: SF-295 CNS
DU-145 prostate = test system: DU-145 prostate
NCI/ADR-RES ovarian = test system: NCI/ADR-RES ovarian
HCT-15 colon = test system: HCT-15 colon
ACHN renal = test system: ACHN renal
MALME-3M melanoma = test system: MALME-3M melanoma
MDA-MB-231 breast = test system: MDA-MB-231 breast
SR leukemia = test system: SR leukemia
EKVX NSCLC = test system: EKVX NSCLC
MCF7 breast = test system: MCF7 breast
786-0 renal = test system: 786-0 renal
M14 melanoma = test system: M14 melanoma
CAKI-1 renal = test system: CAKI-1 renal
T-47D breast = test system: T-47D breast
HL-60(TB) leukemia = test system: HL-60(TB) leukemia
OVCAR-4 ovarian = test system: OVCAR-4 ovarian
SNB-19 CNS = test system: SNB-19 CNS
OVCAR-5 ovarian = test system: OVCAR-5 ovarian
KM12 colon = test system: KM12 colon
HOP-62 NSCLC = test system: HOP-62 NSCLC
SK-OV-3 ovarian = test system: SK-OV-3 ovarian
SN12C renal = test system: SN12C renal
OVCAR-8 ovarian = test system: OVCAR-8 ovarian
TK-10 renal = test system: TK-10 renal
A498 renal = test system: A498 renal
HT29 colon = test system: HT29 colon
SF-539 CNS = test system: SF-539 CNS
SK-MEL-28 melanoma = test system: SK-MEL-28 melanoma
SNB-75 CNS = test system: SNB-75 CNS
NCI-H23 lung = test system: NCI-H23 lung
BT-549 breast = test system: BT-549 breast
UACC-62 melanoma = test system: UACC-62 melanoma
IGROV1 ovarian = test system: IGROV1 ovarian
NCI-H522 lung = test system: NCI-H522 lung
UO-31 renal = test system: UO-31 renal
HCT-116 colon = test system: HCT-116 colon
SK-MEL-2 melanoma = test system: SK-MEL-2 melanoma
SW-620 colon = test system: SW-620 colon
MOLT-4 leukemia = test system: MOLT-4 leukemia

With C=C1CC(C)(c2ccc(Nc3nc4ccccc4c4occc34)cc2)OC1=O (centres undefined) the TGI (CCRF-CEM leukemia) was 3.76 µM, the TGI (PC-3 prostate) was 20 µM and the TGI (SK-MEL-5 melanoma) was 19.6 µM. It also gave a TGI (SF-268 CNS) of 15.2 µM, a TGI (A549 NSCLC) of 23.7 µM and a TGI (U251 CNS) of 38.9 µM. For the same compound, the TGI (MDA-N) was 12.7 µM, the TGI (HCC-2998 colon) was 5.63 µM and the TGI (RPMI-8226 leukemia) was 4.47 µM. For the same compound, the TGI (OVCAR-3 ovarian) was 12.9 µM, the TGI (MDA-MB-435) was 6.09 µM and the TGI (COLO 205 colon) was 16.2 µM. The TGI (K-562 leukemia) was > 100 µM, the TGI (NCI-H460 lung) was 51.5 µM and the TGI (NCI-H226 lung) was 1.94 µM. It also gave a TGI (UACC-257 melanoma) of 0.164 µM, a TGI (RXF 393 renal) of 4.92 µM and a TGI (HOP-92 NSCLC) of 12.6 µM. It also gave a TGI (SF-295 CNS) of 27.4 µM, a TGI (DU-145 prostate) of 28.4 µM and a TGI (NCI/ADR-RES ovarian) of 20.1 µM. It also gave a TGI (HCT-15 colon) of 4.73 µM, a TGI (ACHN renal) of 17.8 µM and a TGI (MALME-3M melanoma) of 43.4 µM. For the same compound, the TGI (MDA-MB-231 breast) was 6.35 µM, the TGI (SR leukemia) was 4.53 µM and the TGI (EKVX NSCLC) was 24.5 µM. For the same compound, the TGI (MCF7 breast) was > 100 µM, the TGI (786-0 renal) was 3.79 µM and the TGI (M14 melanoma) was 4.73 µM. It also gave a TGI (CAKI-1 renal) of 40.3 µM, a TGI (T-47D breast) of 6.85 µM and a TGI (HL-60(TB) leukemia) of 6.34 µM. For the same compound, the TGI (OVCAR-4 ovarian) was 7.73 µM, the TGI (SNB-19 CNS) was 34.6 µM and the TGI (OVCAR-5 ovarian) was 30.6 µM. The TGI (KM12 colon) was 34 µM, the TGI (HOP-62 NSCLC) was 34 µM and the TGI (SK-OV-3 ovarian) was 24.1 µM. For the same compound, the TGI (SN12C renal) was 4.91 µM, the TGI (OVCAR-8 ovarian) was 11.4 µM and the TGI (TK-10 renal) was 16.7 µM. For the same compound, the TGI (A498 renal) was 33.8 µM, the TGI (HT29 colon) was 12.6 µM and the TGI (SF-539 CNS) was 4.5 µM. It also gave a TGI (SK-MEL-28 melanoma) of 27.4 µM, a TGI (SNB-75 CNS) of 6.56 µM and a TGI (NCI-H23 lung) of 4.55 µM. The TGI (BT-549 breast) was 7.02 µM.

CN1C(=O)C2(Cc3cn(C45CC67SSC(CO)(C(=O)N6C4Nc4ccccc45)N(C)C7=O)c4ccccc34)SSC1(CO)C(=O)N2C (centres undefined) was tested, and the TGI (CCRF-CEM leukemia) was > 100 µM, the TGI (UACC-62 melanoma) was 0.324 µM and the TGI (PC-3 prostate) was 0.214 µM. It also gave a TGI (IGROV1 ovarian) of 0.107 µM, a TGI (NCI-H522 lung) of 0.0137 µM and a TGI (SF-268 CNS) of 0.265 µM. The TGI (MDA-N) was 0.0661 µM, the TGI (HCC-2998 colon) was 0.136 µM and the TGI (RPMI-8226 leukemia) was > 100 µM. The TGI (OVCAR-3 ovarian) was 0.215 µM, the TGI (K-562 leukemia) was > 100 µM and the TGI (NCI-H460 lung) was 0.778 µM. The TGI (UO-31 renal) was 0.179 µM, the TGI (UACC-257 melanoma) was 1.13 µM and the TGI (HOP-92 NSCLC) was 0.771 µM. For the same compound, the TGI (SF-295 CNS) was 1.34 µM, the TGI (DU-145 prostate) was 0.173 µM and the TGI (ACHN renal) was 0.0776 µM. It also gave a TGI (HCT-116 colon) of 0.115 µM, a TGI (MDA-MB-231 breast) of 0.0494 µM and a TGI (EKVX NSCLC) of 0.166 µM. For the same compound, the TGI (MCF7 breast) was 0.259 µM, the TGI (786-0 renal) was 0.0283 µM and the TGI (M14 melanoma) was 0.0298 µM. For the same compound, the TGI (SK-MEL-2 melanoma) was 0.288 µM, the TGI (HL-60(TB) leukemia) was > 100 µM and the TGI (OVCAR-4 ovarian) was 0.0234 µM. For the same compound, the TGI (OVCAR-5 ovarian) was 0.289 µM, the TGI (SW-620 colon) was > 100 µM and the TGI (KM12 colon) was 0.577 µM. It also gave a TGI (HOP-62 NSCLC) of 0.277 µM, a TGI (SK-OV-3 ovarian) of 1.56 µM and a TGI (SN12C renal) of 0.0696 µM. For the same compound, the TGI (OVCAR-8 ovarian) was 0.202 µM, the TGI (TK-10 renal) was 0.103 µM and the TGI (HT29 colon) was 0.0164 µM. The TGI (SF-539 CNS) was 0.0738 µM, the TGI (SK-MEL-28 melanoma) was 0.505 µM and the TGI (SNB-75 CNS) was 0.345 µM. The TGI (MOLT-4 leukemia) was 1.08 µM.
